Experimental data from patent publication US9199942B2, “Processes for the preparation of pesticidal compounds” (Dow AgroSciences LLC, priority 2013, dated 2015).
Structures can show the parent of a compound that is named as a salt. Where two headings read alike, the source gives them in different places.

Columns and labels:
[1] = system: Green Peach Aphid (Myzus persicae) (MYZUPE); experiment: Bioassay on green peach aphid (GPA), foliar spray on infested cabbage seedlings; assay type: in vivo; details: 72 h, read-out: MYZUPE rating (% Control of Mortality)
Method: Example A Bioassays on Green Peach Aphid (“GPA”) (Myzus persicae) (MYZUPE.
Several molecules disclosed herein were tested against GPA using procedures described below.
Cabbage seedling grown in 3-in pots, with 2-3 small (3-5 cm) true leaves, were used as test substrate. The seedlings were infested with […] (wingless adult and nymph stages) one day prior to chemical application. Four posts with individual seedlings were used for each treatment. Test compounds (2 mg) were dissolved in 2 mL of acetone/methanol (1:1) solvent, forming stock solutions of 1000 ppm test compound. The stock solutions were diluted 5× with 0.025% Tween 20 in water to obtain the solution at 200 ppm test compound. A hand-held aspirator-type sprayer was used for spraying a solution to both sides of the cabbage leaves until runoff. Reference plants (solvent check) were sprayed with the diluent only containing 20% by volume acetone/methanol (1:1) solvent. Treated plants were held in a holding room for three days at approximately 25° C. and ambient relative humidity (RH) prior to grading. Evaluation was conducted by counting the number of live aphids per plant under a microscope. Percent Control was measured by using Abbott's correction formula (W. S. Abbott, “A Method of Computing the Effectiveness of an Insecticide” J. Econ. Entomol 18 (1925), pp. 265-267) as follows. Corrected % Control=100*(X−Y)/X • where • X=No. of live aphids on solvent check plants and • Y=No. of live aphids on treated plants
The results are indicated in the table entitled “Table 1: GPA (MYZUPE) and sweetpotato whitefly-crawler (BEMITA) Rating Table”.

[2] = system: Sweetpotato Whitefly Crawler (Bemisia tabaci) (BEMITA); experiment: Bioassay on sweetpotato whitefly crawler, foliar spray on infested cotton plants; assay type: in vivo; details: read-out: BEMITA rating (% Control of Mortality)
Source text: Example B Bioassays on Sweetpotato Whitefly Crawler (Bemisia tabaci) (BEMITA.)
Cotton plants grown in 3-inch pots, with 1 small (3-5 cm) true leaf, were used at test substrate. The plants were placed in a room with whitely adults. Adults were allowed to deposit eggs for 2-3 days. After a 2-3 day egg-laying period, plants were taken from the adult whitefly room. Adults were blown off leaves using a hand-held Devilbliss sprayer (23 psi). Plants with egg infestation (100-300 eggs per plant) were placed in a holding room for 5-6 days at 82° F. and 50% RH for egg hatch and crawler stage to develop. Four cotton plants were used for each treatment. Compounds (2 mg) were dissolved in 1 mL of acetone solvent, forming stock solutions of 2000 ppm. The stock solutions were diluted 10× with 0.025% Tween 20 in water to obtain a test solution at 200 ppm. A hand-held Devilbliss sprayer was used for spraying a solution to both sides of cotton leaf until runoff. Reference plants (solvent check) were sprayed with the diluent only. Treated plants were held in a holding room for 8-9 days at approximately 82° F. and 50% RH prior to grading. Evaluation was conducted by counting the number of live nymphs per plant under a microscope.

[3] = 200 ppm spray on cabbage leaves, live aphids counted after three days, Abbott's correction
[4] = 200 ppm spray on cotton leaves, live nymphs counted after 8-9 days, Abbott's correction

Row | SMILES | mortality at 200 ppm [1] [%] | mortality at 200 ppm [2] [%] | mortality at 200 ppm [1, 3] [%] | mortality at 200 ppm [2, 4] [%]
1 | Nc1c[nH]nc1Cl [Compound 1a, 3-chloro-1H-pyrazol-4-amine hydrochloride] | 0 to 80 | 0 to 80 |  | 
2 | O=C(CCSCCC(F)(F)F)Nc1c[nH]nc1Cl [Compound 3.4] |  |  | 0 to 80 | 0 to 80
3 | O=C(CCCl)Nc1c[nH]nc1Cl [Compound 4a, 3-chloro-N-(-3-chloro-1H-pyrazol-4-yl) propanamide] |  |  | < 0 | 0 to 80
